Reference: PubChem BioAssay (NCI)
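How tested: cells in 96-well plates exposed to compound for 48 hours at five concentrations. TGI: total growth inhibition.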

What was measured:
Experiment in all cases: growth of human tumour cells (NCI), 48 h
[1] = test system: DU-145 prostate
[2] = test system: OVCAR-8 ovarian
[3] = test system: MOLT-4 leukemia
[4] = test system: SR leukemia
[5] = test system: UACC-257 melanoma
[6] = test system: SF-268 CNS
[7] = test system: HCC-2998 colon
[8] = test system: K-562 leukemia
[9] = test system: MCF7 breast
[10] = test system: SK-OV-3 ovarian
[11] = test system: U251 CNS
[12] = test system: UACC-62 melanoma
[13] = test system: T-47D breast
[14] = test system: SK-MEL-2 melanoma
[15] = test system: ACHN renal
[16] = test system: MALME-3M melanoma
[17] = test system: RXF 393 renal
[18] = test system: EKVX NSCLC
[19] = test system: M14 melanoma
[20] = test system: HOP-92 NSCLC
[21] = test system: NCI-H23 lung
[22] = test system: PC-3 prostate
[23] = test system: RPMI-8226 leukemia
[24] = test system: HL-60(TB) leukemia
[25] = test system: MDA-MB-435
[26] = test system: HCT-15 colon
[27] = test system: HCT-116 colon
[28] = test system: OVCAR-3 ovarian
[29] = test system: HS 578T breast
[30] = test system: HT29 colon
[31] = test system: SNB-19 CNS
[32] = test system: MDA-MB-231 breast
[33] = test system: BT-549 breast
[34] = test system: SK-MEL-28 melanoma
[35] = test system: NCI/ADR-RES ovarian
[36] = test system: IGROV1 ovarian
[37] = test system: NCI-H522 lung
[38] = test system: TK-10 renal
[39] = test system: SF-539 CNS
[40] = test system: SNB-75 CNS
[41] = test system: OVCAR-4 ovarian
[42] = test system: NCI-H226 lung
[43] = test system: COLO 205 colon
[44] = test system: KM12 colon
[45] = test system: SN12C renal
[46] = test system: MDA-N
[47] = test system: SF-295 CNS
[48] = test system: A498 renal
[49] = test system: SK-MEL-5 melanoma
[50] = test system: A549 NSCLC
[51] = test system: OVCAR-5 ovarian
[52] = test system: HOP-62 NSCLC
[53] = test system: CAKI-1 renal
[54] = test system: UO-31 renal
[55] = test system: NCI-H460 lung
[56] = test system: 786-0 renal
[57] = test system: SW-620 colon
[58] = test system: LOX IMVI melanoma
[59] = test system: CCRF-CEM leukemia

`COC(=O)c1c(OC(C)=O)ccc2c1c1c(n2C)C(=O)c2ccccc2C1=O` showed a TGI [1] of 62.5 µM, a TGI [2] of over 100 µM and a TGI [3] of over 100 µM. The TGI [4] was over 100 µM, the TGI [5] was 44.8 µM and the TGI [6] was over 100 µM. It also gave a TGI [7] of 63.5 µM, a TGI [8] of over 100 µM and a TGI [9] of over 100 µM. It also gave a TGI [10] of 46.2 µM, a TGI [11] of over 100 µM and a TGI [12] of over 100 µM. The TGI [13] was 36.9 µM, the TGI [14] was 96.1 µM and the TGI [15] was 51.5 µM. It also gave a TGI [16] of 55.3 µM, a TGI [17] of over 100 µM and a TGI [18] of 92.7 µM. For the same compound, the TGI [19] was over 100 µM, the TGI [20] was 9.58 µM and the TGI [21] was 61.2 µM. For the same compound, the TGI [22] was 88.1 µM, the TGI [23] was 28 µM and the TGI [24] was over 100 µM. For the same compound, the TGI [25] was over 100 µM, the TGI [26] was over 100 µM and the TGI [27] was over 100 µM. The TGI [28] was 63 µM, the TGI [29] was 39.1 µM and the TGI [30] was over 100 µM. The TGI [31] was over 100 µM, the TGI [32] was over 100 µM and the TGI [33] was 57 µM. It also gave a TGI [34] of over 100 µM, a TGI [35] of over 100 µM and a TGI [36] of 22.3 µM. For the same compound, the TGI [37] was 67.6 µM, the TGI [38] was 88.1 µM and the TGI [39] was 47 µM. The TGI [40] was 41.3 µM, the TGI [41] was over 100 µM and the TGI [42] was over 100 µM. The TGI [43] was over 100 µM, the TGI [44] was 86.4 µM and the TGI [45] was over 100 µM. For the same compound, the TGI [46] was over 100 µM, the TGI [47] was 67.8 µM and the TGI [48] was 41.7 µM. It also gave a TGI [49] of 47 µM, a TGI [50] of 80.8 µM and a TGI [51] of over 100 µM. It also gave a TGI [52] of 67.4 µM, a TGI [53] of 61.7 µM and a TGI [54] of over 100 µM. For the same compound, the TGI [55] was over 100 µM and the TGI [56] was over 100 µM.

`CCCCCC(C)SC1(C(=O)OC)CC(OC(C)=O)C(NC(C)=O)C([C@H](OC(C)=O)[C@@H](COC(C)=O)OC(C)=O)O1` (some centres undefined) gave a TGI [1] of over 100 µM, a TGI [2] of over 100 µM and a TGI [3] of over 100 µM. The TGI [4] was over 100 µM, the TGI [5] was over 100 µM and the TGI [6] was over 100 µM. The TGI [7] was over 100 µM, the TGI [8] was over 100 µM and the TGI [9] was over 100 µM. It also gave a TGI [11] of over 100 µM, a TGI [13] of over 100 µM and a TGI [14] of 64.4 µM. For the same compound, the TGI [15] was over 100 µM, the TGI [16] was over 100 µM and the TGI [17] was over 100 µM. The TGI [19] was over 100 µM, the TGI [20] was over 100 µM and the TGI [21] was over 100 µM. For the same compound, the TGI [22] was over 100 µM, the TGI [23] was over 100 µM and the TGI [24] was over 100 µM. For the same compound, the TGI [25] was over 100 µM, the TGI [26] was over 100 µM and the TGI [27] was over 100 µM. The TGI [28] was over 100 µM, the TGI [29] was 97 µM and the TGI [30] was over 100 µM. The TGI [31] was over 100 µM, the TGI [32] was over 100 µM and the TGI [33] was over 100 µM. For the same compound, the TGI [34] was over 100 µM, the TGI [35] was over 100 µM and the TGI [36] was over 100 µM. The TGI [57] was over 100 µM, the TGI [37] was over 100 µM and the TGI [38] was over 100 µM. For the same compound, the TGI [39] was 70.1 µM, the TGI [40] was over 100 µM and the TGI [42] was over 100 µM. The TGI [44] was over 100 µM, the TGI [45] was over 100 µM and the TGI [46] was over 100 µM. For the same compound, the TGI [47] was over 100 µM, the TGI [48] was over 100 µM and the TGI [49] was over 100 µM. It also gave a TGI [50] of over 100 µM, a TGI [51] of over 100 µM and a TGI [52] of over 100 µM. The TGI [53] was over 100 µM, the TGI [54] was over 100 µM and the TGI [55] was over 100 µM. The TGI [56] was over 100 µM.

`CC#CC(=O)SCCNC(=O)CC` showed a TGI [1] of over 10 µM, a TGI [2] of over 10 µM and a TGI [3] of over 8.86 µM. It also gave a TGI [4] of over 7.91 µM, a TGI [5] of over 10 µM and a TGI [6] of over 10 µM. For the same compound, the TGI [7] was over 10 µM, the TGI [8] was over 10 µM and the TGI [9] was over 10 µM. For the same compound, the TGI [10] was over 10 µM, the TGI [11] was over 10 µM and the TGI [12] was over 10 µM. The TGI [13] was over 10 µM, the TGI [14] was over 10 µM and the TGI [15] was over 10 µM. It also gave a TGI [16] of over 10 µM, a TGI [17] of over 9.55 µM and a TGI [18] of over 10 µM. For the same compound, the TGI [19] was over 10 µM, the TGI [58] was over 10 µM and the TGI [59] was over 8.72 µM. For the same compound, the TGI [21] was over 10 µM, the TGI [22] was over 10 µM and the TGI [23] was over 10 µM. For the same compound, the TGI [24] was over 10 µM, the TGI [25] was over 10 µM and the TGI [26] was over 10 µM. It also gave a TGI [27] of over 10 µM, a TGI [28] of over 10 µM and a TGI [29] of over 10 µM. For the same compound, the TGI [30] was over 10 µM, the TGI [31] was over 10 µM and the TGI [32] was over 10 µM. The TGI [33] was over 10 µM, the TGI [34] was over 10 µM and the TGI [35] was over 10 µM. It also gave a TGI [36] of over 10 µM, a TGI [57] of over 10 µM and a TGI [37] of 3.14 µM. It also gave a TGI [38] of over 10 µM, a TGI [39] of over 10 µM and a TGI [40] of over 10 µM. It also gave a TGI [41] of over 10 µM, a TGI [42] of over 10 µM and a TGI [43] of over 10 µM. It also gave a TGI [44] of over 10 µM, a TGI [45] of over 10 µM and a TGI [46] of over 10 µM. For the same compound, the TGI [47] was over 10 µM, the TGI [48] was over 10 µM and the TGI [49] was over 10 µM. It also gave a TGI [50] of over 10 µM, a TGI [51] of over 10 µM and a TGI [52] of over 10 µM. It also gave a TGI [53] of over 10 µM, a TGI [54] of over 10 µM and a TGI [55] of over 10 µM. For the same compound, the TGI [56] was over 10 µM.

Work on `C=C(C)C(O)C(O)c1c(OC)ccc2ccc(=O)oc12` (centres undefined) yielded a TGI [1] of over 100 µM, a TGI [2] of over 100 µM and a TGI [3] of over 100 µM. It also gave a TGI [4] of over 100 µM, a TGI [5] of over 100 µM and a TGI [6] of over 100 µM. For the same compound, the TGI [7] was over 100 µM, the TGI [8] was over 100 µM and the TGI [9] was over 100 µM. The TGI [10] was over 100 µM, the TGI [11] was over 100 µM and the TGI [12] was over 100 µM. It also gave a TGI [13] of over 100 µM, a TGI [14] of over 100 µM and a TGI [15] of over 100 µM. The TGI [16] was over 100 µM, the TGI [17] was over 100 µM and the TGI [18] was over 100 µM. For the same compound, the TGI [19] was over 100 µM, the TGI [20] was over 100 µM and the TGI [59] was over 100 µM. It also gave a TGI [21] of over 100 µM, a TGI [22] of over 100 µM and a TGI [23] of over 100 µM. The TGI [24] was over 100 µM, the TGI [25] was over 100 µM and the TGI [26] was over 100 µM. The TGI [27] was over 100 µM, the TGI [28] was over 100 µM and the TGI [29] was over 100 µM. For the same compound, the TGI [30] was over 100 µM, the TGI [31] was over 100 µM and the TGI [32] was over 100 µM. It also gave a TGI [33] of over 100 µM, a TGI [34] of over 100 µM and a TGI [35] of over 100 µM. It also gave a TGI [36] of over 100 µM, a TGI [57] of over 100 µM and a TGI [37] of over 100 µM. The TGI [38] was over 100 µM, the TGI [39] was over 100 µM and the TGI [40] was over 100 µM. The TGI [41] was over 100 µM, the TGI [42] was over 100 µM and the TGI [43] was over 100 µM. For the same compound, the TGI [44] was over 100 µM, the TGI [45] was over 100 µM and the TGI [46] was over 100 µM. For the same compound, the TGI [47] was over 100 µM, the TGI [48] was over 100 µM and the TGI [49] was over 100 µM. For the same compound, the TGI [50] was over 100 µM, the TGI [51] was over 100 µM and the TGI [52] was over 100 µM. For the same compound, the TGI [53] was over 100 µM, the TGI [54] was over 100 µM and the TGI [55] was over 100 µM. It also gave a TGI [56] of over 100 µM.
